Results as given in patent US7553815B1, “Therapeutic use” (priority 1999, dated 2009).
Marks after values point to notes of the source that are not given here.

System: normal breast epithelium
Experiment: Normal breast xenografts: proliferation (Ki67 LI) and apoptosis (AI) (Example 2)
Assay type: in vivo, human

COc1cc2ncnc(Nc3ccc(F)c(Cl)c3)c2cc1OCCCN1CCOCC1 [ZD1839, N-(3-chloro-4-fluorophenyl)-7-methoxy-6-(3-morpholinopropoxy)quinazolin-4-amine]
Median LI/AI, Normal breast (Day 21, ratio of cell turnover): 3.9*** | Dose response of epithelial proliferation (Ki67 LI), FIG. 2 (normal breast, Day 28, 10-200 mg/kg): not in normal breast
